According to patent publication US9994758B2, “Microbial metabolism of chlorine oxyanions as a control of biogenic hydrogen sulfide production” (The Regents of the University of California, priority 2011, dated 2018):

Key:
[1] = system: marine sediment slurry microcosms; assay: Sulfide inhibition in marine sediment slurry microcosms; format: cell-based; conditions: addition of chlorate and Dechloromarinus strain NSS, extended incubation for over 250 hours
Description: In the absence of chlorate and Dechloromarinus strain NSS sulfide is readily produced.

Desulfovibrio vulgaris = assay: Inhibition of sulfidogenesis by sulfate-reducing bacteria (D. vulgaris culture, lactate/sulfate medium); format: cell-based
Description: Twelve tubes of basal anaerobic medium containing 15 mM lactate and 15 mM sulfate were inoculated with an active culture of D. vulgaris and incubated for 6 hours at 30° C., until a visible increase in optical density was observed. After six hours, the tubes were further inoculated with A. suillum and 15 mM chlorate prior to incubation overnight at 30° C., as outlined in Table 2.

With `[O-][Cl+2]([O-])O` [chlorate] the “sulfide production in marine sediment slurry microcosms (FIG. 4)” value [1] was “sulfide inhibition”, the “sulfide production by D. vulgaris relative to control cells incubated without chlorate” value (Desulfovibrio vulgaris; 15 mM chlorate alone, 24 hours, 30° C., 15 mM lactate and 15 mM sulfate) was 49% and the “sulfide production by D. vulgaris relative to control cells incubated in the absence of A. suillum and chlorate” value (Desulfovibrio vulgaris; 15 mM chlorate together with A. suillum, 24-hour incubation, 30° C., 15 mM lactate and 15 mM sulfate) was 17%. For the same compound, the “antimicrobial activity against D. vulgaris” value (Desulfovibrio vulgaris; chlorate at relatively low concentrations (15 mM)) was “has antimicrobial activity against D. vulgaris” and the “time course of sulfidogenesis by D. vulgaris (FIG. 6)” value (Desulfovibrio vulgaris; treated with A. suillum (PS) and chlorate at 48 hours, relative to untreated control) was “immediate inhibition of sulfide production and removal of sulfide from the medium”.
